Data: US20050079228A1, “Clear, stable topical compositions of clarithromycin and processes for their preparation” (priority 2003, published 2005)

Experiments:
[1] = Solubility of clarithromycin in non-aqueous media on complexation with zinc salt; type: physicochemical; conditions: molar ratio about 1:0.2 to about 1:2
From the text: Clarithromycin and the zinc salt are preferably combined in a molar ratio ranging from about 1:0.2 to about 1:2. This ratio permits the occurrence of effective complexation of the zinc and clarithromycin.

gram-positive bacteria = conditions: disclosed in U.S. Pat. No. 4,331,803; cited from earlier work

SMILES: CC[C@H]1OC(=O)[C@H](C)[C@@H](O[C@H]2C[C@@](C)(OC)[C@@H](O)[C@H](C)O2)[C@H](C)[C@@H](O[C@@H]2O[C@H](C)C[C@H](N(C)C)[C@H]2O)[C@](C)(OC)C[C@@H](C)C(=O)[C@H](C)[C@@H](O)[C@]1(C)O [clarithromycin]
- Solubility of clarithromycin in a non-aqueous media [1]: increases the solubility
- Antibacterial activity against gram-positive bacteria (gram-positive bacteria): strong antibacterial activity
